# Test results: publication PMC6218115, “In Vitro Potency and Preclinical Pharmacokinetic Comparison of All-D-Enantiomeric Peptides Developed for the Treatment of Alzheimer’s Disease” (Journal of Alzheimer's Disease, 2018)
# Non-standard residues stand in square brackets, D forms with d. Residues, ends and D or L forms follow the SMILES beside them.
# Assays:
# [1] = Pharmacokinetic concentration-time profiles and parameters after i.v. and p.o. administration; type: in vivo, C57Bl/6N mice; details: mice; for Cmax, brain / Cmax, plasma: 3H-label LSC; for Cmax, plasma: 3 mice/time point; for AUC %ID,0 - 1440, plasma: non-compartmental analysis
# Method: The pharmacokinetic profiles were investigated in 180 male C57Bl/6N mice aged 13-14 weeks, weighing about 27.4 g in average. Mice were ordered at Charles River (Germany) and housed at least one week under standard housing conditions (12/12 h light-dark cycle, approximately 22°C room temperature and 54% humidity; water and food available ad libitum) in the animal facility of the Forschungszentrum Jülich GmbH before the experiments were carried out. All animal experiments were approved by the Animal Protection Committee of the local government according to the German Protection of Animals Act (LANUV, North-Rhine-Westphalia, Germany, Az.84-02.04.2017.A029).
# To determine the concentration-time profiles of ANK6, tANK6, and cANK6r in murine brain, plasma, liver, kidney, and cerebrospinal fluid (CSF) after i.v. and p.o. administration, mixed solutions of non-labelled and ^3H-labelled peptides were prepared. The administered solutions contained 1 mg/mL (i.v.) or 3 mg/mL (p.o.) of the respective D-peptide including small amounts of ^3H-labelled peptides (0.54μg/mL ^3H-ANK6, 1.79μg/mL ^3H-tANK6, or 0.98μg/mL ^3H-cANK6r). Doses were administered by body weight: i.v. 3.3 mg/kg, ANK6 & tANK6 p.o. 10 mg/kg, cANK6r p.o. 15 mg/kg. Three male C57Bl/6N mice aged 13-14 weeks were investigated per time point whereby individual outliers were excluded from further evaluation. Organs were harvested as follows: i.v. 5, 10, 30, 60, 120, 240, 360, 1080, 1440 min; p.o.: 10, 20, 30, 60, 120, 240, 360, 1080, 1440 min.
# Animals whose CSF was not extracted were anesthetized with isoflurane (cp-pharma, Germany) inhalation approximately 2 min before each organ harvesting time point. Afterwards, blood was taken by cardiac puncture and the heparinized blood was centrifuged (3000 g, 5 min, 4°C) to get plasma. The plasma in the supernatant was separated and 1:1 diluted with PBS. The right brain hemisphere, 200 mg of the big liver lobe, and the right kidney were removed, weighed, and homogenized in 500μL PBS (Precellys Ceramic Kit 1.4 mm, Precellys 24, Bertin technologies SAS, France). 100μL of the diluted plasma, the homogenized brain, liver, or kidney (in triplicates), or 1–5μL (exactly determined) of the extracted CSF (extraction procedure see below, single determination) were mixed with 10 mL scintillation cocktail (Ultima Gold XR, PerkinElmer, USA). The mixture was incubated overnight (100 rpm, room temperature).
# Animals whose CSF was extracted (organ harvesting time points: 60 min, 240 min, 1440 min) were i.p. anesthetized with ketamine/medetomidine approximately 20 min before each sampling time point. When the mouse was in deep narcosis, the cisterna magna was laid free and punctuated with a small capillary to extract about 5μL of CSF as described before. Afterwards, cardiac puncture, organ extractions, and sample preparations were performed as described above.
# Quantification of the amount of ^3H-labelled D-peptides was performed with a LSC and the results (dpm/sample) were converted into mg/mL or % injected dose (% ID)/mL for plasma and for CSF, or in mg/g or % ID/g for brain, liver, and kidney as described before. Total peptide concentrations in the samples were back-calculated from the measured ^3H-labelled peptides’ radioactivity as described before [[20, 25, 26, 29]].
# The determined peptide concentrations were plotted over time to allow for comparison of all peptides’ uptake into brain, plasma, liver, kidney, and CSF. Concentrations at 0 min were set to 0 % ID/mL or 0 % ID/g except for plasma concentrations after i.v. administration. There, concentrations were linearly back-extrapolated based on the first two measured time points (5 min, 10 min).
# To calculate the pharmacokinetic parameters of ANK6, tANK6, and cANK6r for plasma and brain, concentration-time profiles were analyzed. […]
# [2] = molecular target: T1, Aβ1-42 oligomers (Homo sapiens, UniProt P05067); test: Quantitative determination of interference with Aβ aggregate size distribution (QIAD); type: biochemical
# T1 construct: Lyophilized Aβ1 - 42 was dissolved in the respective peptide solution; purchased Isoloid GmbH (recombinant) or Bachem AG (synthetic)
# T1 sequence (P05067 672-713 limits assumed): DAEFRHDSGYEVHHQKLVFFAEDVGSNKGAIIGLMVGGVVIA
# Method: As soluble Aβ oligomers are currently expected to be the most neurotoxic Aβ species causing AD, the Aβ1 - 42 oligomer elimination potency of ANK6, tANK6, and cANK6r was investigated by the quantitative determination of interference with Aβ aggregate size distribution (QIAD) similar as described before. In short, lyophilized Aβ1 - 42 was dissolved in sodium phosphate buffer to a final concentration of 80μM and incubated for 2.5 h (21°C, 600 rpm) to achieve an Aβ aggregate distribution including monomers, oligomers, and higher molecular aggregates. Then, sodium phosphate buffer (control), 20μM ANK6, 20μM tANK6, or 20μM cANK6r were added and incubated for further 40 min (21°C, 600 rpm). Afterwards, the samples were loaded on top of a density gradient (5 to 50% (w/v) iodixanol, OptiPrep, Axis-Shield, Norway) and ultra-centrifuged for 3 h (4°C, 259.000× g, Optima TL-100, Beckman Coulter, USA). In the following, 14 fractions (140μL each) were taken from top to bottom, whereby the top fractions (1-2) contained Aβ monomers, the middle fractions (4–6) contained the Aβ oligomers of special interest, and the bottom fractions (11–14) contained high molecular weight co-precipitates. The left-over was diluted in 60μL 6 M guanidine hydrochloride (fraction 15). Finally, the Aβ1 - 42 concentrations in all fractions were determined via analytical RP-HPLC (reversed phase-high performance liquid chromatography) and UV absorbance detection at 214 nm.
# [3] = p.o. 10 mg/kg (ANK6, tANK6) or 15 mg/kg (cANK6r)
smiles,measurement,setting,value
CC[C@@H](C)[C@@H](NC(=O)[C@@H](CCCNC(=N)N)NC(=O)[C@@H](CCCCN)NC(=O)[C@H](N)CCCNC(=N)N)C(=O)N[C@H](CCCNC(=N)N)C(=O)N[C@H](CC(C)C)C(=O)N[C@@H](C(=O)N[C@@H](C(=O)N[C@H](CCCCN)C(=O)N[C@H](CCCCN)C(=O)N[C@H](CCCCN)C(=O)N[C@H](CCCNC(=N)N)C(N)=O)[C@H](C)O)C(C)C [ANK6] (H-[dR][dK][dR][dI][dR][dL][dV][dT][dK][dK][dK][dR]-NH2; N-terminus assumed),peptide concentration detected in the blood,[1]; 4 h after single oral administration of 10 mg/kg,0.01 µM
same,CSF levels,"[1]; about 60 min after both types of administration (i.v., p.o.)",Extraordinary high CSF levels
same,"AUC %ID,0 - 1440, brain",[1]; i.v. 3.3 mg/kg,35.8 min*% ID/g
same,"CL, terminal plasma clearance",[1]; i.v. 3.3 mg/kg,32.0 mL/min/kg
same,"MRT, plasma",[1]; i.v. 3.3 mg/kg,3 h
same,"t1/2, terminal half-life, plasma",[1]; i.v. 3.3 mg/kg,15 h
same,"tmax, brain",[1]; i.v. 3.3 mg/kg,0.083 h
same,"tmax, plasma",[1]; i.v. 3.3 mg/kg,0 h
same,"λz, terminal elimination rate constant, plasma",[1]; i.v. 3.3 mg/kg,0.00077 min⁻¹
same,"Cmax, brain",[1]; i.v. 3.3 mg/kg,0.07 % ID/g
same,"Cmax, plasma","[1]; i.v. 3.3 mg/kg, back-extrapolated to 0 min",3.17 % ID/mL
same,"AUC %ID,0 - 1440, plasma",[1]; i.v. 3.3 mg/kg,91.7 min*% ID/mL
same,"AUC %ID,0 - 1440, brain",[1]; [3],11.0 min*% ID/g
same,"CL, terminal plasma clearance",[1]; [3],174.5 mL/min/kg
same,"MRT, plasma",[1]; [3],10 h
same,"t1/2, terminal half-life, plasma",[1]; [3],22 h
same,"tmax, brain",[1]; [3],1 h
same,"tmax, plasma",[1]; [3],2 h
same,"λz, terminal elimination rate constant, plasma",[1]; [3],0.00054 min⁻¹
same,"F (AUC %ID), oral bioavailability","[1]; p.o. 10 mg/kg (ANK6, tANK6) or 15 mg/kg (cANK6r) versus i.v. 3.3 mg/kg, plasma AUC %ID",11.8%
same,"Cmax, brain",[1]; [3],0.01 % ID/g
same,"Cmax, plasma",[1]; [3],0.02 % ID/mL
same,"AUC %ID,0 - 1440, plasma",[1]; [3],10.8 min*% ID/mL
same,Aβ concentrations in fractions 1 and 2 (Aβ monomers),"[2]; 80 μM Aβ1-42, 20 μM peptide",reduced the Aβ monomer concentrations much stronger
same,Aβ oligomer concentrations in fractions 4 to 6 versus Aβ1-42 alone,"[2]; 80 μM Aβ1-42 pre-incubated 2.5 h, 20 μM peptide, 40 min, density gradient centrifugation, RP-HPLC UV 214 nm, p≤0.001",significantly lowered
